Source: article PMC8250858, “A Systematic Study of the Stability, Safety, and Efficacy of the de novo Designed Antimicrobial Peptide PepD2 and Its Modified Derivatives Against Acinetobacter baumannii” (Frontiers in Microbiology, 2021)
Converted amounts (≈) assume the structure as drawn. Like-named read-outs stand apart in the source and are kept apart here. Non-standard residues stand in square brackets, D forms with d. Residues, ends and D or L forms follow the SMILES beside them. *: point of attachment. Stearoyl = CCCCCCCCCCCCCCCCCC(=O)*; Palmitoyl = CCCCCCCCCCCCCCCC(=O)*; Myristoyl = CCCCCCCCCCCCCC(=O)*; Octanoyl = CCCCCCCC(=O)*; Orn = NCCC[C@H](N)C(=O)O; Hexanoyl = CCCCCC(=O)*; Butyryl = CCCC(=O)*

Tests used:
Hemolytic assay = assay type: cell-based, rat
Description: The blood cells were washed three times with PBS, where the volume of PBS was the same as that of the original blood, by gently turning the centrifuge tube upside down. After washing, ten microliters of blood cells were diluted 2,000-fold in PBS to count the cells. Finally, red blood cells were diluted to 5 × 10^8 cells/mL in PBS. Peptides were dissolved in water and filtered through a 0.2-μm filter to make a stock solution. The peptide concentration was quantitated by the UV280. The peptide solution was diluted in PBS to different concentrations (five times the tested concentrations). Twenty microliters of the peptide in PBS was mixed with 80 μL of red blood cell solution in a 96-well plate (V-bottom). The final peptide concentration was 16–256 μg/mL. In the positive control group, 20 μL of 5% Triton X-100 was added to the red blood cell solution for a final Triton X-100 concentration of 1%. For the negative control group, 20 μL of PBS solution was added. The 96-well plate was incubated at 37°C for 45 min. After centrifuging the 96-well plate at 1,500 × g for 5 min, 30 μL of the supernatant was mixed with 100 μL of deionized water in a 96-well plate (flat bottom). The concentration of heme in each well was measured by the UV405 using an Infinite M1000 pro (Tecan Austria GmbH, Austria). The hemolytic activity was calculated using the following formula. Hemolyticactivity=[(F-F0)/(Ft-F0)]×100% F is the UV405 of the peptide-treated sample F0 is the UV405 of the sample without peptide (negative control) Ft is the UV405 of the Triton-treated sample (positive control)

HEK293 cells = assay type: cell-based, human
Description: Cell viability assays were performed by using the CellTiter 96® AQueous Non-Radioactive Cell Proliferation Assay (Promega, United States), in which 3-(4,5-dimethylthiazol-2-yl)-5-(3-carboxymethoxyphenyl)-2-(4-sulfophenyl)-2H-tetrazolium salt (MTS) can be reduced to purple-colored formazan by intact cells. […] The test peptide was dissolved in water and filtered through a 0.2-μm filter. The peptide concentration was quantitated by the UV280 to make a 5,120 μg/mL stock solution and then serially diluted in serum-free DMEM. On the second day, the medium was replaced with 100 μL of serum-free DMEM containing different peptide concentrations and incubated for 1 or 24 h. Serum-free DMEM without peptide was used as a negative control and medium containing 1% Triton X-100 was used as a positive control. One milligram of MTS powder was dissolved in 0.5 mL of Dulbecco’s phosphate-buffered saline (DPBS). The MTS solution was mixed with one-twentieth of a phenazine methosulfate (PMS) solution ([…]). To each well, 20 μL of the MTS/PMS solution was added. After 3 h, the absorbance was measured with an Infinite M1000 pro (Tecan Austria GmbH, Austria) at a wavelength of 490 nm. Cell viability was calculated using the following equation. Cellviability=[(A-Ap)/(An-Ap)]×100% A is the UV490 of the peptide-treated sample An is the UV490 of the sample without peptide (negative control) Ap is the UV490 of the Triton-treated sample (positive control)

in vitro = in vitro ADME, rat; conditions: for half-life at 0.6 mg/mL: rat plasma, room temperature
Description: EDTA-treated rat whole blood was centrifuged at 4°C and 840 × g for 5 min, and then the blood cells were removed ([[…] et al., 2019]). The supernatant was placed in an Eppendorf tube and centrifuged at 4°C and 13,000 rpm for 10 min to remove lipids (white precipitate). The supernatant was filtered through a 0.2-μm filter. The peptide was dissolved in water and filtered through a 0.2-μm filter. The peptide concentration was quantified by the UV280 to make a 1 mg/mL stock solution. […] At the indicated time, the peptide was analyzed by HPLC with a C18 column using a linear gradient of 20-65% B over 15 min. Solution A: 5% acetonitrile plus 0.1% trifluoroacetic acid in water; solution B: 0.1% trifluoroacetic acid in acetonitrile.

A. baumannii ATCC 17978 = assay type: cell-based, Acinetobacter baumannii
Description: Following CLSI guideline M07-A11, single bacterial colonies of A. baumannii ATCC 17978 grown on Müller–Hinton agar (MHA) plates were picked and inoculated in 4 mL of Müller–Hinton broth (MHB) at 37°C and shaken at 180 rpm for 4∼6 h. The bacterial broth was diluted in the same medium to give a cell density of 1∼2 × 10^8 CFU/mL (OD600 = 0.38∼0.4 for A. baumannii) (Supplementary Figure 1; [Dillon et al., 2020]). Then, the broth was diluted 20-fold. Peptides were dissolved in water and filtered through a 0.2-μm filter to make a stock solution. The peptide concentration was quantified by the UV280. Then, the peptide solution was serially diluted in MHB to final peptide concentrations of 1, 2, 4, 8, 16, and 32 μg/mL. One hundred microliters of serially diluted peptide and 10 μL of bacterial culture were mixed in a 96-well polystyrene plate. Each well contained approximately 5 × 10^5 CFU/mL. The positive control was a mixture of 100 μL of MHB and 10 μL of the bacterial culture. The negative control was 110 μL of MHB. The plates were incubated at 37°C without shaking. […] The bacterium-peptide mixtures (the mixture without visible growth and the mixture containing a two-fold […] peptide concentration than the mixture without growth), positive control, and negative control (3 μL each) were spotted on an MHA plate and incubated at 37°C for 24 h. The MBC was determined as the lowest peptide concentration at which no colonies formed.
The MIC and MBC of our designed peptides against A. baumannii were obtained by using the broth microdilution method in the CLSI protocol. The bacterial cell number was carefully counted, and a final cell density of 5 × 10^5 CFU/mL in each well was used in the MIC test (Supplementary Figure 1). The minimal peptide concentration at which no bacterial growth was observed was taken as the MIC value. The culture after peptide treatment was spotted on an MHA plate, and the peptide concentration that could kill all the bacteria was defined as the MBC. The MIC/MBC and hemolytic activity of these peptides are shown and compared in Figure 1.

[1] = rat red blood cells, 256 μg/mL peptide, 37°C 45 min, read-out: Hemolysis (%) at 256 μg/mL

| Compound | hemolysis at 45 min, 256 μg/mL (Hemolytic assay; rat) | MBC A. baumannii 17978 (A. baumannii ATCC 17978; ATCC 17978, 24 h) | further results |
| --- | --- | --- | --- |
| CCCCCCCCCCCCCC(=O)N[C@@H](Cc1c[nH]c2ccccc12)C(=O)N[C@@H](CCCCN)C(=O)N[C@@H](CCCCN)C(=O)N[C@@H](CC(C)C)C(=O)N[C@@H](CCCCN)C(=O)N[C@@H](CCCCN)C(=O)N[C@@H](CC(C)C)C(=O)N[C@@H](CC(C)C)C(=O)N[C@@H](CCCCN)C(=O)N[C@@H](CCCCN)C(=O)N[C@@H](CC(C)C)C(=O)N[C@@H](CCCCN)C(=O)N[C@@H](CCCCN)C(=O)N[C@@H](CC(C)C)C(N)=O [pepD2M] (Myristoyl-WKKLKKLLKKLKKL-NH2) | 93.6% |  |  |
| Ac-WKKLKKLLKKL-NH2 [pepD3] |  | 8 µg/mL | HEK293 IC50 (HEK293 cells; 1 h): 49.5 µg/mL; HEK293 IC50 (HEK293 cells; 24 h): 68.1 µg/mL; half-life at 0.6 mg/mL (in vitro; rat, plasma): 19.1 h; hemolysis at 45 min, 256 μg/mL (Hemolytic assay; [1]): 3.15% |
| CCCCCC(=O)N[C@@H](Cc1c[nH]c2ccccc12)C(=O)N[C@@H](CCCCN)C(=O)N[C@@H](CCCCN)C(=O)N[C@@H](CC(C)C)C(=O)N[C@@H](CCCCN)C(=O)N[C@@H](CCCCN)C(=O)N[C@@H](CC(C)C)C(=O)N[C@@H](CC(C)C)C(=O)N[C@@H](CCCCN)C(=O)N[C@@H](CCCCN)C(=O)N[C@@H](CC(C)C)C(N)=O [pepD3H] (Hexanoyl-WKKLKKLLKKL-NH2) | 54.1% | 8 µg/mL (≈ 5.25 µM) |  |
| CCCCCCCCCCCCCCCC(=O)N[C@@H](Cc1c[nH]c2ccccc12)C(=O)N[C@@H](CCCCN)C(=O)N[C@@H](CCCCN)C(=O)N[C@@H](CC(C)C)C(=O)N[C@@H](CCCCN)C(=O)N[C@@H](CCCCN)C(=O)N[C@@H](CC(C)C)C(=O)N[C@@H](CC(C)C)C(=O)N[C@@H](CCCCN)C(=O)N[C@@H](CCCCN)C(=O)N[C@@H](CC(C)C)C(=O)N[C@@H](CCCCN)C(=O)N[C@@H](CCCCN)C(=O)N[C@@H](CC(C)C)C(N)=O [pepD2P] (Palmitoyl-WKKLKKLLKKLKKL-NH2) | 83.5% |  |  |
| Ac-WRRLRRLLRRLRRL-NH2 [pepR2] | 106% | 8 µg/mL |  |
| CC(=O)N[C@@H](Cc1c[nH]c2ccccc12)C(=O)N[C@H](CCCCN)C(=O)N[C@H](CCCCN)C(=O)N[C@H](CC(C)C)C(=O)N[C@H](CCCCN)C(=O)N[C@H](CCCCN)C(=O)N[C@H](CC(C)C)C(=O)N[C@H](CC(C)C)C(=O)N[C@H](CCCCN)C(=O)N[C@H](CCCCN)C(=O)N[C@H](CC(C)C)C(=O)N[C@H](CCCCN)C(=O)N[C@H](CCCCN)C(=O)N[C@H](CC(C)C)C(N)=O [pepdD2, Ac-Wkklkkllkklkkl-NH2] (Ac-W[dK][dK][dL][dK][dK][dL][dL][dK][dK][dL][dK][dK][dL]-NH2) |  | 8 µg/mL (≈ 4.36 µM) | HEK293 IC50 (HEK293 cells; 1 h): 40.2 µg/mL; HEK293 IC50 (HEK293 cells; 24 h): 20.6 µg/mL; Extension of peptide half-life in plasma (in vitro): more than 12 fold; remaining at 72 h, 0.6 mg/mL (in vitro; rat, plasma): ~90%; half-life at 0.6 mg/mL (in vitro; rat, plasma): 290 h; hemolysis at 45 min, 256 μg/mL (Hemolytic assay; [1]): 2.9% |
| CC(=O)N[C@@H](Cc1c[nH]c2ccccc12)C(=O)N[C@@H](CCCN)C(=O)N[C@@H](CCCN)C(=O)N[C@@H](CC(C)C)C(=O)N[C@@H](CCCN)C(=O)N[C@@H](CCCN)C(=O)N[C@@H](CC(C)C)C(=O)N[C@@H](CC(C)C)C(=O)N[C@@H](CCCN)C(=O)N[C@@H](CCCN)C(=O)N[C@@H](CC(C)C)C(=O)N[C@@H](CCCN)C(=O)N[C@@H](CCCN)C(=O)N[C@@H](CC(C)C)C(N)=O [pepO2, Ac-WOOLOOLLOOLOOL-NH2] (Ac-W[Orn][Orn]L[Orn][Orn]LL[Orn][Orn]L[Orn][Orn]L-NH2) | 0.23% | 8 µg/mL (≈ 4.64 µM) |  |
| CCCCCCCCCCCCCCCCCC(=O)N[C@@H](Cc1c[nH]c2ccccc12)C(=O)N[C@@H](CCCCN)C(=O)N[C@@H](CCCCN)C(=O)N[C@@H](CC(C)C)C(=O)N[C@@H](CCCCN)C(=O)N[C@@H](CCCCN)C(=O)N[C@@H](CC(C)C)C(=O)N[C@@H](CC(C)C)C(=O)N[C@@H](CCCCN)C(=O)N[C@@H](CCCCN)C(=O)N[C@@H](CC(C)C)C(=O)N[C@@H](CCCCN)C(=O)N[C@@H](CCCCN)C(=O)N[C@@H](CC(C)C)C(N)=O [pepD2S] (Stearoyl-WKKLKKLLKKLKKL-NH2) | 60.7% |  |  |
| Ac-WKKVKKVVKKVKKV-NH2 [pepV2] | 0.31% | 32 µg/mL |  |
| CCCC(=O)N[C@@H](Cc1c[nH]c2ccccc12)C(=O)N[C@@H](CCCCN)C(=O)N[C@@H](CCCCN)C(=O)N[C@@H](CC(C)C)C(=O)N[C@@H](CCCCN)C(=O)N[C@@H](CCCCN)C(=O)N[C@@H](CC(C)C)C(=O)N[C@@H](CC(C)C)C(=O)N[C@@H](CCCCN)C(=O)N[C@@H](CCCCN)C(=O)N[C@@H](CC(C)C)C(N)=O [pepD3B] (Butyryl-WKKLKKLLKKL-NH2) | 7.89% | 8 µg/mL (≈ 5.35 µM) |  |
| Ac-WKKLKKLLKKLKKL-NH2 [pepD2] |  | 8/8 μg/mL | HEK293 IC50 (HEK293 cells; 1 h): 29.1 µg/mL; HEK293 IC50 (HEK293 cells; 24 h): 37.3 µg/mL; half-life at 0.6 mg/mL (in vitro; rat, plasma): 23.1 h; hemolysis at 45 min, 256 μg/mL (Hemolytic assay; [1]): 9.6%; MIC A. baumannii 17978 (A. baumannii ATCC 17978; MHB, 20 h, 5 × 10^5 CFU/mL): 8 µg/mL; MBC A. baumannii 17978 (A. baumannii ATCC 17978; spotted on MHA plate, 24 h): 8 µg/mL |
| CCCCCCCC(=O)N[C@@H](Cc1c[nH]c2ccccc12)C(=O)N[C@@H](CCCCN)C(=O)N[C@@H](CCCCN)C(=O)N[C@@H](CC(C)C)C(=O)N[C@@H](CCCCN)C(=O)N[C@@H](CCCCN)C(=O)N[C@@H](CC(C)C)C(=O)N[C@@H](CC(C)C)C(=O)N[C@@H](CCCCN)C(=O)N[C@@H](CCCCN)C(=O)N[C@@H](CC(C)C)C(N)=O [pepD3O] (Octanoyl-WKKLKKLLKKL-NH2) | 86% | 8 µg/mL (≈ 5.16 µM) |  |
